What was measured:
[1] = tested on: L6-GLUT4myc cells transiently transfected with pCDNA5/TO/GFP; test: Functionality of the T-REx system: tetracycline-inducible GFP expression plasmid; assay type: cell-based, rat; details: doxycycline 1 μg/ml versus absence of doxycycline
Experimental: FIG. 4: Functionality of the T-Rex system. […]T4myc cells were transiently transfected with […] pCDNA5/TO/GFP. In the absence of doxycycline only a minor number of cells express GFP (A). Addition of doxycycline (1μg/ml) increases the number of GFP positive cells up to about 10 fold (B). L6 cells stably expressing GLUT4myc ([…]T4myc, described in Wang et al. 1998) were subsequently used for the tet-inducible expression of AS160 protein. For this purpose the T-REx system from Invitrogen was used. The regulatory plasmid in this system controls the constitutive expression of the tet-repressor (tet-R) under the control of a CMV (cytomegalovirus) promoter. In the absence of tetracyline (or doxycycline) the repressor binds to specific tetracycline-operator sequences (TetO2) and thereby represses expression. Addition of tetracycline (or doxycycline) induces expression of the protein of interest. To allow a stable integration of the tet-system in […]T4myc cells the tet-repressor was islolated from pCDNA3.1 (+)/TR (Invitrogen) and cloned into the Nhel and Notl sites of pIRESpuro2 (FIG. 3). Subsequently pIRESpuro2/TR was transfected into […]T4myc cells. Clones stably expressing the regulatory plasmid were selected with 0.5 μg/ml puromycin (InvivoGen). Functionality of the tet-repressor was controlled with a tetracycline-inducible GFP expression plasmid (pCDNA5/TO-GFP). […]

[2] = tested on: L6-GLUT4myc cells containing AS160; test: Uptake of 2-deoxyglucose in response to insulin (Cytostar-T scintillating microplates); assay type: cell-based, rat; details: FIG. 6
Experimental: For all examples the L6-GLUT4myc cells containing AS160 were grown in MEMα (PAN) supplemented with 10% fetal calf serum (FCS) (PAA, tet-free), 2 μg/ml blasticidin (Calbiochem), 0.5 μg/ml puromycin (InvivoGen), 200 μg/ml hygromycin (Invitrogen). Expression of AS160 was induced with 1 μg/ml doxycyclin (Sigma). L6-wildtype (wt) (ATCC: CRL-1458) cells were grown in MEMα+GlutaMax (Gibco) supplemented with 10% FCS (PAA, tet-free) and 1% penicillin/streptomycin (PAA). L6-GLUT4myc cells were grown in MEMα+GlutaMax (Gibco) supplemented with 10% FCS (PAA, tet-free), 1% penicillin/streptomycin (PAA) and 2 μg/ml blasticidin (Calbiochem). Expression of AS160 was induced by inbubation of the cells for 48 hours with 1 μg/ml doxycycline (Sigma). All cells were grown at 37° C. and 5% CO2 L6-GLUT4myc cells containing AS160 were incubated in starve medium (MEMα) 3-4 hours prior to each experiment.
To examine glucose uptake of the cells, the respective cells were plated in 96 well Cytostar-T scintillating microplates (Amersham/GE). After 48 hours cells were serum-starved (3-4 hours) and treated with the indicated Insuman (human insulin) concentartions a for 20 minutes. […] Nonspecific uptake was determined in the presence of 40 μM cytochalasin B (Calbiochem). […] Uptake of 2-deoxyglucose is measured as counts per […] and presented as fold over basal. […]

Molecule | Increase of the number of GFP positive cells [1] | Uptake of 2-deoxyglucose, fold over basal ([2]; with expression of AS160 (isoform 1, doxycycline-induced), 100 nM insulin, 20 minutes) | Uptake of 2-deoxyglucose, fold over basal (maximum) ([2]; without expression of AS160 (isoform 1), insulin 20 minutes)
C[C@H]1c2cccc(O)c2C(=O)C2=C(O)[C@]3(O)C(=O)C(C(N)=O)=C(O)[C@@H](N(C)C)[C@@H]3[C@@H](O)[C@@H]21 [doxycycline] | about 10 fold |  | 
insulin: Insuman (human insulin) |  | about 6 fold | about 4 fold
